According to patent publication US9271978B2 (Zenith Epigenetics Corp., priority 2012, dated 2016):

Key:
hIL-6 mRNA = assay: Inhibition of hIL-6 mRNA transcription in U937 cells; type: cell-based, human; design: key: Active: Compounds with an IC50 value less than 30 μM were deemed to be active.; Not Active: Compounds with an IC50 value less than 30 μM were deemed to be active; details: LPS stimulation, active = IC50 <30 μM
Summary of the method: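 Readout is one-step real-time PCR of hIL-6 mRNA, normalized to an internal control and given as fold induction versus control. Cells: PMA (60 ng/mL, 3 days)-differentiated U937 macrophages, compound added 1 h before 1 ug/mL LPS, harvested after 3 h at 37° C.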

ApoA-I mRNA = assay: Up-regulation of hApoA-1 mRNA transcription in Huh7 cells; type: cell-based, human; design: key: Active: Compounds with an EC170 value less than 30 μM were deemed to be active; details: 48 h treatment, ApoA-I mRNA by real-time PCR, Active = EC170 less than 30 μM
Description: In this example, ApoA-I mRNA in tissue culture cells was quantitated to measure the transcriptional up-regulation of ApoA-I when treated with a compound of the present disclosure.
Huh7 cells (2.5×10^5 per well) were plated in a 96-well plate using 100 μL DMEM per well, (Gibco DMEM supplemented with penicillin/streptomycin and 10% FBS), 24 h before the addition of the compound of interest. After 48 h treatment, the spent media was removed from the Huh-7 cells and placed on ice (for immediate use) or at −80° C. (for future use) with the “LDH cytotoxicity assay Kit II” from Abcam. The cells remaining in the plate were rinsed with 100 μL PBS.
Then 85 μL of cell lysis solution was added to each well and incubated for 5-10 min at room temperature, to allow for complete cell lysis and detachment. mRNA was then prepared using the “mRNA Catcher PLUS plate” from Life Technologies, according to the protocol supplied. After the last wash, as much wash buffer as possible was aspirated without allowing the wells to dry. Elution Buffer (E3, 80 μL) was then added to each well. mRNA was then eluted by incubating the mRNA Catcher PLUS plate with Elution Buffer for 5 min at 68° C., and then 1 min at 4° C. Catcher plates with mRNA eluted were kept on ice for use or stored at −80° C.
The eluted mRNA isolated was then used in a one-step real-time PCR reaction, using components of the Ultra Sense Kit together with Life Technologies primer-probe mixes. Real-time PCR data was analyzed, using the Ct values, to determine the fold induction of each unknown sample, relative to the control (that is, relative to the control for each independent DMSO concentration).
Compounds with an EC170 value less than 30 μM were deemed to be active.

[1] = target: T1, Brd4 bromodomain 1 (BRD4(1)) (Homo sapiens, UniProt O60885); assay: Inhibition of tetra-acetylated histone H4 binding to Brd4 bromodomain 1 (TR-FRET); design: key: Active: Compounds with an IC50 value less than 30 μM were deemed to be active.; Not Active: Compounds with an IC50 value less than 30 μM were deemed to be active; details: tetra-acetylated histone H4 peptide, active = IC50 <30 μM
T1 construct: Illustrative results with the first bromodomain of Brd4; made in house; host or cells: E. coli BL21 (DE3)
Summary of the method: (§1)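 IC50 values come from dose-response curves of the 665 nm to 620 nm TR-FRET signal decrease, measured after 2 h at room temperature. Reactions contained 200 nM E. coli-expressed His-tagged bromodomain, 25-50 nM biotinylated tetra-acetylated H4 peptide, Eu-streptavidin plus XL665 anti-His antibody, with 30 mM HEPES pH 7.4, 320 mM KF and 0.2% DMSO.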

[2] = target: T2, second bromodomain of Brd2 (BRD2(2)) (Homo sapiens, UniProt P25440); assay: Inhibition of tetra-acetylated histone H4 binding to Brd2 bromodomain 2 (TR-FRET); design: key: Active: Compounds with an IC50 value less than 30 μM were deemed to be active.; Not Active: Compounds with an IC50 value less than 30 μM were deemed to be active; details: tetra-acetylated histone H4 peptide, active = IC50 <30 μM
T2 construct: made in house; host or cells: E. coli BL21 (DE3)
T2 sequence (P25440 344-453 limits assumed): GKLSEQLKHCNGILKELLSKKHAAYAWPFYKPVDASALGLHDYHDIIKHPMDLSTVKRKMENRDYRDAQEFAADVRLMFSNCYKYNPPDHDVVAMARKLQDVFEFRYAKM
Summary of the method: as §1

c-myc = assay: Inhibition of c-myc expression in MV4-11 cells (mRNA, real-time PCR); type: cell-based; design: key: Active: Compounds with an IC50 value less than 30 μM were deemed to be active.; Not Active: Compounds with an IC50 value less than 30 μM were deemed to be active; details: Human AML MV4-11 cells, 3 h incubation
Summary of the method: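 Duplex RT-qPCR of c-myc against cyclophilin cDNA gave IC50 from a dose–response curve. Input was isolated mRNA from 2.5×10^4 MV4-11 cells after 3 h exposure at 37 °C to compound or 0.1% DMSO vehicle.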

[3] = system: human AML MV-4-11 (CRL-9591) cells; assay: Inhibition of cell proliferation in MV4-11 cells; type: cell-based; design: key: Active: Compounds with an IC50 value less than 30 μM were deemed to be active.; Not Active: Compounds with an IC50 value less than 30 μM were deemed to be active; details: human AML MV-4-11 cells, 72 h; active = IC50 <30 μM
Summary of the method: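 IC50 values come from blank-corrected proliferation relative to DMSO controls, read as 490 nm absorbance 3–4 h after CellTiter Aqueous One addition. Before that, cells seeded at 5×10^4/well were exposed for 72 h (37° C, 5% CO2) to triplicate two-fold compound dilutions spanning 30–0.2 μM.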

Row | IL-6 activity (IC50 <30 μM) (hIL-6 mRNA) | FRET activity (IC50 <30 μM) BRD4(1) [1] | FRET activity (IC50 <30 μM) BRD2(2) [2] | c-myc activity (IC50 <30 μM) (c-myc) | Cell Proliferation activity (IC50 <30 μM) [3] | SMILES | ApoA-1 activity (EC170 <30 μM) (ApoA-I mRNA)
1 | Not Active | Active | Active |  |  | Cc1noc(C)c1-c1ccc(=O)n(C(C)c2ccccn2)c1 (stereo not shown) [Example 112, 5-(3,5-Dimethylisoxazol-4-yl)-1-(1-(pyridin-2-yl)ethyl)pyridin-2(1H)-one] | Active
2 | Active | Active |  |  |  | C=Cc1ccc(Cn2cc(-c3c(C)noc3C)ccc2=O)cc1 [Example 218, 5-(3,5-Dimethylisoxazol-4-yl)-1-(4-vinylbenzyl)pyridin-2(1H)-one] | Active
3 |  | Active |  |  |  | Cc1noc(C)c1-c1ccc(=O)n(Cc2ccc(Cl)c(Cl)c2)c1 [Example 155, 1-(3,4-Dichlorobenzyl)-5-(3,5-dimethylisoxazol-4-yl)pyridin-2(1H)-one] | Active
4 | Not Active | Active |  |  |  | Cc1noc(C)c1Nc1cc(-c2c(C)noc2C)cn(Cc2ccccc2)c1=O [Example 217, 1-benzyl-5-(3,5-dimethylisoxazol-4-yl)-3-((3,5-dimethylisoxazol-4-yl)amino)pyridin-2(1H)-one] | Active
5 |  | Active |  |  |  | Cc1nscc1-c1ccc(=O)n(Cc2ccccc2)c1 [Example 160, 1-Benzyl-5-(3-methylisothiazol-4-yl)pyridin-2(1H)-one] | Active
6 | Active | Active |  |  |  | Cc1noc(CO)c1-c1ccc(=O)n(Cc2ccccc2)c1 [Example 214, 1-benzyl-5-(5-(hydroxymethyl)-3-methylisoxazol-4-yl)pyridin-2(1H)-one] | Active
7 |  | Active |  |  |  | Cc1onc(CO)c1-c1ccc(=O)n(Cc2ccccc2)c1 [Example 158, 1-Benzyl-5-(3-(hydroxymethyl)-5-methylisoxazol-4-yl)pyridin-2(1H)-one] | Active
8 | Active | Active | Active | Not Active | Not Active | COc1cc(-c2ccc(=O)n(Cc3cccc(C#N)c3)n2)cc(OC)c1OC [Example 15, 3-((6-Oxo-3-(3,4,5-trimethoxyphenyl)pyridazin-1(6H)-yl)methyl)benzonitrile] | 
9 | Not Active | Active | Active | Active | Not Active | Cc1noc(C)c1-c1ccc(=O)n([C@@H](C)c2ccccc2)c1 [Example 133, (S)-5-(3,5-Dimethylisoxazol-4-yl)-1-(1-phenylethyl)pyridin-2(1H)-one] | 
10 | Active | Active | Active | Active | Active | Cc1noc(C)c1-c1ccc(=O)n(C(C)c2cccc(Cl)c2)c1 (stereo not shown) [Example 113, 1-(1-(3-Chlorophenyl)ethyl)-5-(3,5-dimethylisoxazol-4-yl)pyridin-2(1H)-one] | 
11 | Not Active | Active | Active | Not Active | Not Active | Cc1noc(C)c1-c1ccc(=O)n(CCc2ccccc2)n1 [Example 1, 6-(3,5-Dimethylisoxazol-4-yl)-2-phenethylpyridazin-3(2H)-one] | 
12 | Active | Active | Active | Active | Active | Cc1noc(C)c1-c1cc(F)c(=O)n(Cc2ccccc2)c1 [Example 63, 1-Benzyl-5-(3,5-dimethylisoxazol-4-yl)-3-fluoropyridin-2(1H)-one] | 
13 | Active | Active | Active | Not Active | Active | Cc1cccc(Cn2nc(-c3c(C)noc3C)ccc2=O)c1 [Example 30, 6-(3,5-Dimethylisoxazol-4-yl)-2-(3-methylbenzyl)pyridazin-3(2H)-one] | 
14 | Active | Active | Active | Active | Active | Cc1noc(C)c1-c1ccc(=O)n(Cc2cccc(C(F)(F)F)c2)c1 [Example 4, 5-(3,5-Dimethylisoxazol-4-yl)-1-(3-(trifluoromethyl)benzyl)pyridin-2(1H)-one] | 
15 | Active | Active | Active | Active | Active | COc1ccc(Nc2ccc(=O)n(Cc3ccccc3)c2)cc1OC [Example 65, 1-Benzyl-5-((3,4-dimethoxyphenyl)amino)pyridin-2(1H)-one] | 
16 | Not Active | Active | Active | Not Active | Active | Cc1noc(C)c1-c1ccc(=O)n(Cc2ccc(C(F)(F)F)cc2)n1 [Example 91, 6-(3,5-Dimethylisoxazol-4-yl)-2-(4-(trifluoromethyl)benzyl)pyridazin-3(2H)-one] | 
17 |  | Active |  |  |  | Cc1noc(C)c1-c1cc(Nc2cccc(F)c2)c(=O)n(Cc2ccccc2)c1 [Example 157, 1-Benzyl-5-(3,5-dimethylisoxazol-4-yl)-3-((3-fluorophenyl)amino)pyridin-2(1H)-one] | Active
18 | Active | Active | Active | Active | Active | Cc1noc(C)c1-c1ccc(=O)n(Cc2cccc(F)c2)c1 [Example 42, 5-(3,5-Dimethylisoxazol-4-yl)-1-(3-fluorobenzyl)pyridin-2(1H)-one] | 
19 | Active | Active | Active | Active | Active | COc1cccc(Cn2cc(-c3c(C)noc3C)ccc2=O)c1 [Example 78, 5-(3,5-Dimethylisoxazol-4-yl)-1-(3-methoxybenzyl)pyridin-2(1H)-one] | 
